From publication PMC4540177 (Bioorganic & medicinal chemistry letters, 2013)

Legend:
[1] = Mouse brain penetration; format: in vivo, C57Bl6 mice
[2] = Rat pharmacokinetics; format: in vivo, Sprague-Dawley rats

Row | SMILES | brain penetration (in words) [1] | half live (in words) ([2]; rat) | oral exposure (in words) ([2]; rat) | in vivo properties (in words) ([2]; rat pk)
1 | Cc1ncn(-c2ccc(Nc3cc(-c4nocc4-c4cnn(C)c4)ccn3)cc2)n1 [Compound 27] | poor brain penetration | short half live | good oral exposure | –
2 | Cc1ncn(-c2ccc(Nc3cc(-c4nocc4-c4cn[nH]c4C)ccn3)cc2)n1 [Compound 28] | – | – | – | poor in vivo properties
